ChEMBL document CHEMBL5316286, “Inhibition of the Ubiquitin Transfer Cascade by a Peptidomimetic Foldamer Mimicking the E2 N-Terminal Helix” (J Med Chem, 2023)
One block for each compound: values may come before it. Calls of active or inactive are those of the source. The calls are words filed in the database; no cut-off is given here. *1 amine or outer side, *2 acyl side, *3 side chain or, on linkers, in order; H or OH if unused. Where a SMILES comes first, the peptide text is derived from it. [ ]: non-standard residue; d: D form. X1 = N=C(N)CCCC[C@H](N[*:1])C(=O)[*:2]

How the values were obtained:
[1] = target: T1, E3 ubiquitin-protein ligase CHIP (Homo sapiens) (UniProt Q9UNE7); experiment: Inhibition of N-terminal Flag-tagged full-length U-box E3 CHIP (unknown origin) self-ubiquitination expressed in Escherichia coli BL21 (DE3) cells assessed as inhibition of Uba1-UbcH5B-CHIP cascade at upto 50 uM preincubated for 30 mins followed by ubiquitin addition measured after 1 hr by Western blot analysis; conditions: time 90.0 min
T1 sequence (whole entry): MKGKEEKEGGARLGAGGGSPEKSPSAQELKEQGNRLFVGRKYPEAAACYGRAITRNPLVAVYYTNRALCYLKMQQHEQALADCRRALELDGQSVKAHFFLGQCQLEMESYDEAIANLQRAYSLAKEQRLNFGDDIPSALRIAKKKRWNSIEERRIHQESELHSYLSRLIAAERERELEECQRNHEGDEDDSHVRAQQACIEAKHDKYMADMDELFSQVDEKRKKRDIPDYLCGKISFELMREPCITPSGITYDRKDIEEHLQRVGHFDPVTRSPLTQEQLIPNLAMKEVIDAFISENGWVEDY

[2] = target: T1, E3 ubiquitin-protein ligase CHIP (Homo sapiens); experiment: (§1) Inhibition of N-terminal Flag-tagged full-length U-box E3 CHIP (unknown origin) self-ubiquitination expressed in Escherichia coli BL21 (DE3) cells assessed as decrease in polyubiquitination at 50 uM preincubated for 30 mins followed by ubiquitin addition measured after 1 hr by Western blot analysis; conditions: time 90.0 min
[3] = target: T1, E3 ubiquitin-protein ligase CHIP (Homo sapiens); experiment: Inhibition of N-terminal Flag-tagged full-length U-box E3 CHIP (unknown origin)-mediated CDK4 monoubiquitination expressed in Escherichia coli BL21 (DE3) cells upto 50 uM preincubated for 30 mins followed by ubiquitin addition measured after 1 hr by Western blot analysis; conditions: time 90.0 min
[4] = target: T1, E3 ubiquitin-protein ligase CHIP (Homo sapiens); experiment: as §1, with “polyubiquitination at upto 50 uM” for “polyubiquitination at 50 uM”; conditions: time 90.0 min
[5] = Stability of compound in ammonium bicarbonate buffer at pH 7.8 at 0.1 mg/ml incubated for 24 hrs by HPLC/MS analysis; type: physicochemical; conditions: pH 7.8, 24 h
[6] = Stability of compound in human serum at 1 mg incubated for 24 hrs by HPLC analysis; type: ADME, cell-free
[7] = target: T1, E3 ubiquitin-protein ligase CHIP (Homo sapiens); experiment: Inhibition of CHIP-mediated CDK4 ubiquitination in HEK293T cells upto 50 uM preincubated for 14 hrs followed by MG132 addition measured after 12 hrs by Western blot analysis; type: cell-based; conditions: time 26.0 hrs
[8] = target: T1, E3 ubiquitin-protein ligase CHIP (Homo sapiens); experiment: Inhibition of CHIP (unknown origin) self-ubiquitination upto 50 uM in presence of ubiquitin-preloaded UbcH5B by Western blot analysis
[9] = target: Cyclin-dependent kinase 4 (Homo sapiens) (UniProt P11802); experiment: Inhibition of CDK4 ubiquitination in HEK293 cells overexpressing CHIP upto 50 uM by Western blot analysis; type: cell-based
Homo sapiens = organism: Homo sapiens; experiment: Disruption of Uba1/UbcH5B (unknown origin) interaction assessed as inhibition of UbcH5B-ubiquitin conjugate formation at 50 uM preincubated for 30 mins followed by ubiquitin addition measured after 30 mins by Western blot analysis
[10] = Aggregation propensity of the compound in D2O assessed as signal shift at 1 mM measured for 24 hrs by 1H-NMR analysis; type: physicochemical; conditions: 1000 µM
[11] = Aggregation propensity of the compound in D2O assessed as signal shift at 1 mM measured after 10 days by 1H-NMR analysis; type: physicochemical; conditions: 240 h, 1000 µM, time 10 day
Erythrocyte = experiment: Hemolytic activity in human RBC assessed as cell membrane disruption upto 400 uM incubated for 1 hr by microplate reader analysis; type: toxicity, cell-based
HEK293 = experiment: Cytotoxicity against HEK293 cells assessed as cell membrane disruption upto 100 uM incubated for 24 hrs by DAPI/PI staining based confocal microscopy; type: toxicity; conditions: human, hek293, 24 h
[12] = target: T2, Ubiquitin-like modifier-activating enzyme 1 (Homo sapiens) (UniProt P22314); experiment: Binding affinity to His-tagged Uba1 (unknown origin)-coated Ni-NTA beads assessed as measuring green fluorescence at 10 uM incubated for 30 mins by laser scanning microscopy
T2 sequence (whole entry): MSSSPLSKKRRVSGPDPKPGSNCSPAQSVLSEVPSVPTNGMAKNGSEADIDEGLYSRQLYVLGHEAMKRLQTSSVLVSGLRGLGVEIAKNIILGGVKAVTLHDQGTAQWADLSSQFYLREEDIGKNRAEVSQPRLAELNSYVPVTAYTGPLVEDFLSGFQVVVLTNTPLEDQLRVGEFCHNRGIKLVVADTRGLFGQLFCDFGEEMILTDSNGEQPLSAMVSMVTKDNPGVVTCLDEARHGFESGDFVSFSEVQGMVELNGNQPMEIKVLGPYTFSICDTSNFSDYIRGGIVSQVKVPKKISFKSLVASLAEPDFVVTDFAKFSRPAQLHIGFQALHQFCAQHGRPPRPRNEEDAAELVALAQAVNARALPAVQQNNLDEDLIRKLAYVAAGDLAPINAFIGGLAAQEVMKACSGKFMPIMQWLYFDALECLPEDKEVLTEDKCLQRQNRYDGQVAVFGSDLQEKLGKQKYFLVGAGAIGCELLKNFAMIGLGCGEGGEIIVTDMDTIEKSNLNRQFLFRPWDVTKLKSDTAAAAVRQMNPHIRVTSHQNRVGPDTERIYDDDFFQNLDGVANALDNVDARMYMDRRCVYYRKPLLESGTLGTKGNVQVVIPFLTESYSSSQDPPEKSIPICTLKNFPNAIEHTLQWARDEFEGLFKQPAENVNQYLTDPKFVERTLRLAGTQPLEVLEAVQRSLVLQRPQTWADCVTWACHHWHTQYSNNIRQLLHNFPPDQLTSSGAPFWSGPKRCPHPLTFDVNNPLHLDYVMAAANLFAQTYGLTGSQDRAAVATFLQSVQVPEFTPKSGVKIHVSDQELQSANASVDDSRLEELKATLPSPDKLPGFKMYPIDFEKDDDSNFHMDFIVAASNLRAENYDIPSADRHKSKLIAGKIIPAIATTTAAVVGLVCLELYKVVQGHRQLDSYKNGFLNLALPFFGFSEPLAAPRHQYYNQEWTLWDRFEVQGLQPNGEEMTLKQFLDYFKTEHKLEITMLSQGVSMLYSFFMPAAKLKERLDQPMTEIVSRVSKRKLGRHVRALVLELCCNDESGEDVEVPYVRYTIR

Cyclin-dependent kinase 4 (Homo sapiens), sequence (P11802 whole entry): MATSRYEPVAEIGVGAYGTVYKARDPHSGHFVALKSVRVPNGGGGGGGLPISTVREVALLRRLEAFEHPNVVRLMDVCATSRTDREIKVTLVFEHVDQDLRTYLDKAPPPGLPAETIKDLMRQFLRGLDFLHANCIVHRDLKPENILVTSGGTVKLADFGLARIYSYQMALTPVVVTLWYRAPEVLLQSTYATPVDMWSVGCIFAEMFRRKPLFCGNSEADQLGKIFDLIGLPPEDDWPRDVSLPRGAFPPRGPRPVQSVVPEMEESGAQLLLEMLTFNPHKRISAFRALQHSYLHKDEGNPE

- inhibition [1]: inactive
SMILES: CC(=O)N[C@H](CO)CN(CC(=O)N[C@H](C)CN(CC(=O)N[C@H](CCCCN)CN(CC(=O)N[C@H](CC(C)C)CN(CC(=O)N[C@H](CCCCN)CN(CC(=O)N[C@H](CC(C)C)CN(CC(=O)N[C@H](CCC(=O)O)CN(CC(=O)N[C@H](CCCCN)CN(CC(N)=O)S(=O)(=O)CCN)S(=O)(=O)CC(C)C)S(=O)(=O)CCN)S(C)(=O)=O)S(=O)(=O)CCN)S(=O)(=O)CCN)S(=O)(=O)CC(C)C)S(=O)(=O)CC(C)C

- inhibition [2]: Active
- inhibition [3]: inactive
SMILES: COc1ccc(S(=O)(=O)N(CC(=O)N[C@H](CCCCN)CN(CC(=O)N[C@H](CCCCN)CN(CC(=O)N[C@H](CC(C)C)CN(CC(=O)N[C@H](CCCCN)CN(CC(=O)N[C@@H]2CCCCNC(=O)c3ccc(cc3)C(=O)NCCCC[C@H](CN(CC(N)=O)S(C)(=O)=O)NC(=O)CN(S(C)(=O)=O)C[C@@H](CCCCN)NC(=O)CN(S(C)(=O)=O)C2)S(C)(=O)=O)S(=O)(=O)CCN)S(=O)(=O)CCN)S(C)(=O)=O)C[C@@H](CCCCN)NC(C)=O)cc1

- inhibition [4]: inactive
- inhibition [3]: inactive
SMILES: CC(=O)N[C@H](CO)CN(CC(=O)N[C@H](C)CN(CC(=O)N[C@H](CCCCN)CN(CC(=O)N[C@H](CC(C)C)CN(CC(=O)N[C@H](CCCCN)CN(CC(=O)N[C@@H]1CCCCNC(=O)c2ccc(cc2)C(=O)NCCCC[C@H](CN(CC(N)=O)S(C)(=O)=O)NC(=O)CN(S(=O)(=O)CC(C)C)C[C@@H](CCC(=O)O)NC(=O)CN(S(C)(=O)=O)C1)S(C)(=O)=O)S(=O)(=O)CCN)S(=O)(=O)CCN)S(=O)(=O)CC(C)C)S(=O)(=O)CC(C)C

- inhibition [4]: inactive
- inhibition [3]: inactive
SMILES: CC(=O)N[C@H](CO)CN(CC(=O)N[C@@H]1CCCCNC(=O)c2ccc(cc2)C(=O)NCCCC[C@H](CN(CC(=O)N[C@H](CCCCN)CN(CC(=O)N[C@H](CC(C)C)CN(CC(=O)N[C@H](CCC(=O)O)CN(CC(=O)N[C@H](CCCCN)CN(CC(N)=O)S(=O)(=O)CCN)S(=O)(=O)CC(C)C)S(=O)(=O)CCN)S(C)(=O)=O)S(C)(=O)=O)NC(=O)CN(S(=O)(=O)CCN)C[C@@H](CCCCN)NC(=O)CN(S(C)(=O)=O)C1)S(=O)(=O)CC(C)C

- inhibition [4]: inactive
- inhibition [3]: inactive
SMILES: CC(=O)N[C@H](CO)CN(CC(=O)N[C@H](C)CN(CC(=O)N[C@H](CCCCN)CN(CC(=O)N[C@@H]1CCCCNC(=O)c2ccc(cc2)C(=O)NCCCC[C@H](CN(CC(=O)N[C@H](CCC(=O)O)CN(CC(=O)N[C@H](CCCCN)CN(CC(N)=O)S(=O)(=O)CCN)S(=O)(=O)CC(C)C)S(C)(=O)=O)NC(=O)CN(S(C)(=O)=O)C[C@@H](CCCCN)NC(=O)CN(S(C)(=O)=O)C1)S(=O)(=O)CCN)S(=O)(=O)CC(C)C)S(=O)(=O)CC(C)C

- Stability [5]: Stable
- Stability [6]: Stable
SMILES: CC[C@H](C)[C@H](NC(=O)[C@H](CCC(=O)O)NC(=O)[C@H](CCCCN)NC(=O)[C@H](CCSC)NC(=O)[C@@H](NC(=O)[C@H](CCCNC(=N)N)NC(=O)[C@H](CCCCN)NC(=O)[C@H](C)NC(=O)[C@H](CCCCC(=N)N)NC(=O)[C@H](CO)NC(=O)[C@H](CO)NC(C)=O)[C@@H](C)CC)C(=O)N[C@@H](CCC(N)=O)C(=O)N[C@@H](C)C(=O)N[C@H](C(=O)N[C@@H](CCCCN)C(=O)N[C@@H](CC(=O)O)C(N)=O)C(C)C (Ac-SS[X1]AKRIMKEIQAVKD-NH2)

- inhibition [2]: Active
- inhibition [3]: Active
- inhibition [7]: Active
- inhibition [8]: inactive
- inhibition [9]: Active
- inhibition (Homo sapiens): Active
- Activity [10]: Not Active
- Activity [11]: Active
- Stability [5]: Stable
- Stability [6]: Stable
SMILES: COc1ccc(S(=O)(=O)N(CC(=O)N[C@@H]2CCCCNC(=O)c3ccc(cc3)C(=O)NCCCC[C@H](CN(CC(=O)N[C@H](CCCCN)CN(CC(=O)N[C@H](CC(C)C)CN(CC(=O)N[C@H](CCCCN)CN(CC(=O)N[C@H](CC(C)C)CN(CC(N)=O)S(=O)(=O)CCN)S(C)(=O)=O)S(=O)(=O)CC(C)C)S(C)(=O)=O)S(C)(=O)=O)NC(=O)CN(S(=O)(=O)CCN)C[C@@H](CCCCN)NC(=O)CN(S(C)(=O)=O)C2)C[C@@H](CCCCN)NC(C)=O)cc1
- Activity (Erythrocyte): Non-Toxic
- Activity (HEK293): Non-Toxic

- inhibition [1]: inactive
- Activity [12]: inactive
SMILES: COc1ccc(S(=O)(=O)N(CC(=O)N[C@@H](CCCCN)CN(CC(=O)N[C@@H](CCCCN)CN(CC(=O)N[C@@H](CC(C)C)CN(CC(=O)N[C@@H](CCCCN)CN(CC(=O)N[C@@H](CC(C)C)CN(CC(=O)N[C@@H](CCCCN)CN(CC(=O)N[C@@H](CC(C)C)CN(CC(N)=O)S(=O)(=O)CCN)S(C)(=O)=O)S(=O)(=O)CC(C)C)S(C)(=O)=O)S(=O)(=O)CCN)S(=O)(=O)CCN)S(C)(=O)=O)C[C@H](CCCCN)NC(C)=O)cc1
